# Substitutions are numbered along the chain they refer to.
# Assays:
# [1] = target: T1, Adenosine receptor A2a (Rattus norvegicus, UniProt P30543)
# [2] = target: Adenosine receptor A2a (Cavia porcellus, UniProt P46616); test: Binding affinity to guinea pig adenosine A2A receptor
# [3] = target: T1, Adenosine receptor A2a; remark: listed apart in the source
# [4] = target: T2, Adenosine receptor A1 (Rattus norvegicus) (UniProt P25099); test: Displacement of [3H]CCPA from adenosine A1 receptor in rat brain cortex membrane at 1 uM; assay type: cell membranes
# T2 sequence (whole entry): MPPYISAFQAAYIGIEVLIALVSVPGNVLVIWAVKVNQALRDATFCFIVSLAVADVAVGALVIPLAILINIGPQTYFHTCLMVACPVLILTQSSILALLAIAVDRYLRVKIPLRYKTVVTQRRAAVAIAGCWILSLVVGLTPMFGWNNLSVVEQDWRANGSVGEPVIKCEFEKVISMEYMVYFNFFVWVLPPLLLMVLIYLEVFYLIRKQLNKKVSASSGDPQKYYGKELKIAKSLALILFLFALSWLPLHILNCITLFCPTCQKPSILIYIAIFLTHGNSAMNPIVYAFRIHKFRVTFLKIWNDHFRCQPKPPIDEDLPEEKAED
# [5] = target: T3, Adenosine receptor A2b (Homo sapiens, UniProt P29275); test: Displacement of [3H]PSB-603 from human adenosine A2B receptor expressed in CHO cells; assay type: cell-based
# T3 sequence (P29275 whole entry): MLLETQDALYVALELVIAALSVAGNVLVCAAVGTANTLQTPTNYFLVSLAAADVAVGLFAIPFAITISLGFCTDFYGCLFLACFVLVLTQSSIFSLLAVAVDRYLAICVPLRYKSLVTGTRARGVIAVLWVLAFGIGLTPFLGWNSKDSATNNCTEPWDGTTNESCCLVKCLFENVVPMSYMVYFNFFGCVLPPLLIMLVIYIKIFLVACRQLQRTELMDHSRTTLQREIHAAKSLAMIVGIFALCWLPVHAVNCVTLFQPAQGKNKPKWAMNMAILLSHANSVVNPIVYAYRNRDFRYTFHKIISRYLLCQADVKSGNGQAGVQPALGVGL
# [6] = target: Adenosine receptor A2a (Rattus norvegicus) (UniProt P30543); test: Displacement of [3H]MSX2 from adenosine A2A receptor in rat brain striatum membrane at 1 uM; assay type: cell membranes
# Adenosine receptor A2a (Rattus norvegicus), sequence (P30543 whole entry): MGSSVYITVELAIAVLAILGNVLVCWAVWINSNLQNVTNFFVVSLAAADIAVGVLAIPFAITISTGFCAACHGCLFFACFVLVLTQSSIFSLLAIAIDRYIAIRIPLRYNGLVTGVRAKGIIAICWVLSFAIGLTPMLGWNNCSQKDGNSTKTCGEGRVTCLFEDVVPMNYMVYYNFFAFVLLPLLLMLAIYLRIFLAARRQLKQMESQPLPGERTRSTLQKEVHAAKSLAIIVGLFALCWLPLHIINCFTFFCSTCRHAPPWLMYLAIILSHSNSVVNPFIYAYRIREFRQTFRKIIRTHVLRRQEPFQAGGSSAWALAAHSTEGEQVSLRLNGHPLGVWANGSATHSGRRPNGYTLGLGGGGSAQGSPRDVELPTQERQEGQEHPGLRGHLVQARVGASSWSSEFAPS
# [7] = target: T4, Adenosine receptor A1 (Rattus norvegicus, UniProt P25099)
# T4 sequence (P25099 whole entry): T2 sequence (whole entry)
# [8] = target: T5, Adenosine receptor A3 (Homo sapiens, UniProt P0DMS8); test: biochemical
# T5 sequence (P0DMS8 whole entry): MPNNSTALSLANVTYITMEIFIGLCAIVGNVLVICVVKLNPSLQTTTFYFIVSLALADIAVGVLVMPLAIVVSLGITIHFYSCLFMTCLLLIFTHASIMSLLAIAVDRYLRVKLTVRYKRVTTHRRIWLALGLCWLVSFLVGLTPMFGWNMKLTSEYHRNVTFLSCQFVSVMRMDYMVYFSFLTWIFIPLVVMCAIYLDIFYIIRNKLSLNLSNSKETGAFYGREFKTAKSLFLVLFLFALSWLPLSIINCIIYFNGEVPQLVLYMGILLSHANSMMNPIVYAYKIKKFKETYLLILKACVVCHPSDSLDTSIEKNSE
# [9] = target: T6, Adenosine receptor A3 (Homo sapiens) (UniProt P0DMS8); test: Displacement of [3H]PSB-11 from human adenosine A3 receptor expressed in CHO cells at 1 uM; assay type: cell-based
# T6 sequence (whole entry): T5 sequence (P0DMS8 whole entry)
# [10] = target: T7, Adenosine receptor A2b (Homo sapiens) (UniProt P29275); test: Displacement of [3H]PSB-603 from human adenosine A2B receptor expressed in CHO cells at 1 uM; assay type: cell-based
# T7 sequence (whole entry): T3 sequence (P29275 whole entry)
# [11] = target: T4, Adenosine receptor A1; test: Displacement of [3H]DPCPX from adenosine A1 receptor in rat brain cortical membrane in presence of 100 uM GTP; assay type: cell membranes
# [12] = target: T8, Adenosine receptor A1 (Homo sapiens, UniProt P30542); test: Displacement of [3H]CCPA from human adenosine A1 receptor expressed in CHO cells; assay type: cell-based
# T8 sequence (P30542 whole entry): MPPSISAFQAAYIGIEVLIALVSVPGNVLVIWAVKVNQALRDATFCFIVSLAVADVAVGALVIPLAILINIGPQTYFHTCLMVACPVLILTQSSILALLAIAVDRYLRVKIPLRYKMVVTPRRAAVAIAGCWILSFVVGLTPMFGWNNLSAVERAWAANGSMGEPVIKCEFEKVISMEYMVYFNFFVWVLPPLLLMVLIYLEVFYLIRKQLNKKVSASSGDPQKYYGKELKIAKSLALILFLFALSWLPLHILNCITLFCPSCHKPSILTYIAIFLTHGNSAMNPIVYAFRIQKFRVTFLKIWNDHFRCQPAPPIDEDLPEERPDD
# [13] = target: T2, Adenosine receptor A1 (Rattus norvegicus); test: Potency shift, ratio of IC50 for rat brain cortical membrane adenosine A1 receptor in presence of 100 uM GTP to C50 for rat brain cortical membrane adenosine A1 receptor in absence of 100 uM GTP
# [14] = target: Adenosine receptor A2a (Homo sapiens, UniProt P29274); test: Displacement of [3H]MSX2 from human adenosine A2A receptor expressed in CHO cells; assay type: cell-based
# Adenosine receptor A2a (Homo sapiens, UniProt P29274), sequence (P29274 whole entry): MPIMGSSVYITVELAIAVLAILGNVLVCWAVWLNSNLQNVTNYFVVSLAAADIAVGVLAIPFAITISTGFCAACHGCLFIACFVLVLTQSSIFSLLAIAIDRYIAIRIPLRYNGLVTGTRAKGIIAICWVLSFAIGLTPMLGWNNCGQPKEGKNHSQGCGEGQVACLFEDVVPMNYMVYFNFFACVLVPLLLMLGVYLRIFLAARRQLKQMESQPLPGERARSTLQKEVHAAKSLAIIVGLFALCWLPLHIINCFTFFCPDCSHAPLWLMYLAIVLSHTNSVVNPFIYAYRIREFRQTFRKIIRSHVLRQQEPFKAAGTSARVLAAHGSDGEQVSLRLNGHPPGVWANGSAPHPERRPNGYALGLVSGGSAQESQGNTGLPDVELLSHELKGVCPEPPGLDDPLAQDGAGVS
# [15] = target: T4, Adenosine receptor A1; test: Displacement of [3H]DPCPX from adenosine A1 receptor in rat brain cortical membrane in absence of 100 uM GTP; assay type: cell membranes
# [16] = target: T9, Adenosine receptor A1 (Mus musculus, UniProt Q60612); test: Binding affinity to mouse adenosine A1 receptor
# T9 sequence (Q60612 whole entry): T2 sequence (whole entry) with V151E, D155A, R157I, D316E, L319I, E325D
# [17] = target: T10, Adenosine receptor A1 (Cavia porcellus, UniProt P47745); test: Binding affinity to guinea pig adenosine A1 receptor
# T10 sequence (P47745 whole entry): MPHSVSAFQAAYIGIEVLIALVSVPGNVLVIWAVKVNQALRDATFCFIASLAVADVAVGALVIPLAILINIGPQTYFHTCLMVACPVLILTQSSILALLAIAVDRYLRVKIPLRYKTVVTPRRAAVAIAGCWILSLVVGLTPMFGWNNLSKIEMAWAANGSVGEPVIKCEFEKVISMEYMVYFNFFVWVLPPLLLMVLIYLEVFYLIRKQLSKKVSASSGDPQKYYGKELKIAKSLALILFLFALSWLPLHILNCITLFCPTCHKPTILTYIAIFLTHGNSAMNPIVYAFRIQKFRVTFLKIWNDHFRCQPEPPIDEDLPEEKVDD
# [18] = target: T4, Adenosine receptor A1; test: Binding affinity to rat adenosine A1 receptor
# [19] = target: T5, Adenosine receptor A3; test: Binding affinity to human adenosine A3 receptor
# [20] = target: T8, Adenosine receptor A1; test: Binding affinity to human adenosine A1 receptor
# T1 sequence (P30543 whole entry): as the sequence (P30543 whole entry) above
# Adenosine receptor A2a (Cavia porcellus, UniProt P46616), sequence (P46616 whole entry): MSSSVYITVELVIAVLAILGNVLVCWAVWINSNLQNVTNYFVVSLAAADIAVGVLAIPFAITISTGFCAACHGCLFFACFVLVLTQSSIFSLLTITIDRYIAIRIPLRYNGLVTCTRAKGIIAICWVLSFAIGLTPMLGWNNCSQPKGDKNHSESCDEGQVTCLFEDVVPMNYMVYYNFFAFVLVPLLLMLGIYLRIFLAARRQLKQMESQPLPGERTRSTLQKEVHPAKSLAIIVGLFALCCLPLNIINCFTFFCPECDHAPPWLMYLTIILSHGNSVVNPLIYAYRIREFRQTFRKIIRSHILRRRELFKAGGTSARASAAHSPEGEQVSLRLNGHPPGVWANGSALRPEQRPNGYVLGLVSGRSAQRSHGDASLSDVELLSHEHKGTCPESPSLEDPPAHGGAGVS
Ki [3],inhibition [4],Ki [5],inhibition [6],Ki [7],Ki [8],inhibition [9],inhibition [10],SMILES,other results
,,,,,,,,CCCn1c(=O)c2[nH]c(C34CC5CC(CC3C5)C4)nc2n(CCC)c1=O [ROLOFYLLINE],Ki [1]: 170 nM; Ki [2]: 230 nM
> 1000 nM,< 30%,> 1000 nM,< 30%,> 1000 nM,> 1000 nM,< 30%,< 30%,CNc1nc(-c2ccccc2)c(C(=O)c2ccc(OC)cc2)s1,
> 1000 nM,< 30%,> 1000 nM,< 30%,> 1000 nM,> 1000 nM,< 30%,< 30%,Cc1ccc(C(=O)c2sc(Nc3ccccc3)nc2-c2ccccc2)cc1,
> 1000 nM,< 30%,> 1000 nM,< 30%,> 1000 nM,> 1000 nM,< 30%,< 30%,CNc1nc(-c2ccccc2)c(C(=O)c2ccccc2)s1,
3030 nM,,> 1000 nM,,9.51 nM,354 nM,,< 30%,O=C(Nc1nc(-c2ccccc2)c(C(=O)c2ccccc2)s1)c1ccccc1,
1840 nM,,> 1000 nM,,69.9 nM,98.8 nM,,< 30%,CCOC(=O)Nc1nc(-c2ccccc2)c(C(=O)c2ccc(OC)cc2)s1,
> 1000 nM,,> 1000 nM,< 30%,12 nM,619 nM,,< 30%,O=C(Nc1nc(-c2ccccc2)c(C(=O)c2ccc(Cl)cc2)s1)c1ccco1,
> 1000 nM,< 30%,> 1000 nM,< 30%,> 1000 nM,> 1000 nM,< 30%,< 30%,Cc1ccc(C(=O)Nc2nc(-c3ccccc3)c(C(=O)c3ccc(Cl)cc3)s2)cc1,
,< 30%,,< 30%,,,< 30%,39%,COc1ccc(C(=O)c2sc(Nc3ccccc3)nc2-c2ccccc2)cc1,
> 1000 nM,41%,> 1000 nM,< 30%,1000 nM,487 nM,,< 30%,CCOC(=O)Nc1nc(-c2ccccc2)c(C(=O)c2ccc(Cl)cc2)s1,
662 nM,,> 1000 nM,,5.77 nM,208 nM,,< 30%,O=C(Nc1nc(-c2ccccc2)c(C(=O)c2ccccc2)s1)c1ccco1,IC50 [11]: 28.8 nM; Ki [12]: 54.3 nM; Ratio IC50 [13]: 1.2; Ki [14]: 0.348 µM; IC50 [15]: 25.4 nM
> 1000 nM,< 30%,> 1000 nM,< 30%,> 1000 nM,> 1000 nM,< 30%,< 30%,CS(=O)(=O)c1ccc(C(=O)c2sc(NC(=O)c3ccccc3)nc2-c2ccccc2)cc1,
> 1000 nM,< 30%,337 nM,< 30%,> 1000 nM,> 1000 nM,< 30%,,O=C(c1ccccc1)c1sc(Nc2ccccc2)nc1-c1ccccc1,
2470 nM,,,,,3250 nM,,,OC[C@H]1O[C@@H](n2cnc3c(NC4CCCC4)ncnc32)[C@H](O)[C@@H]1O [N6-CYCLOPENTYLADENOSINE],
> 1000 nM,< 30%,> 1000 nM,< 30%,> 1000 nM,> 1000 nM,< 30%,< 30%,CS(=O)(=O)c1ccc(C(=O)c2sc(Nc3ccccc3)nc2-c2ccccc2)cc1,
> 1000 nM,,> 1000 nM,< 30%,7.15 nM,1000 nM,56%,< 30%,COc1ccc(C(=O)c2sc(NC(=O)c3ccccc3)nc2-c2ccccc2)cc1,
,,,,,,,,O=C(/C=C/c1c(-c2ccccc2)nn2ccccc12)N1CCCC[C@@H]1CCO [FK453],Ki [16]: 0.55 nM; IC50 [17]: 0.56 nM; IC50 [2]: 1180 nM
1640 nM,,391 nM,,72.9 nM,206 nM,,,CCOC(=O)Nc1nc(-c2ccccc2)c(C(=O)c2ccccc2)s1,
,,,,,,,,CCCn1c(=O)c2[nH]c(C34CCC(CCC(=O)O)(CC3)CC4)nc2n(CCC)c1=O [TONAPOFYLLINE],Ki [1]: 2440 nM; Ki [18]: 1.3 nM; Ki [19]: 10 µM
> 1000 nM,< 30%,> 1000 nM,< 30%,> 1000 nM,> 1000 nM,< 30%,40%,Cc1ccc(C(=O)Nc2nc(-c3ccccc3)c(C(=O)c3ccccc3)s2)cc1,
,,,,,,,,O=C(c1ccccc1)c1sc(NCCc2cccs2)nc1-c1ccco1,Ki [20]: > 6700 nM
,,,,,,,,O=C(O)CCCn1nc(-c2c(-c3ccccc3)nn3ccccc23)ccc1=O,Ki [20]: 12 nM; Ki [16]: 10.2 nM; Ki [1]: 1200 nM; Ki [17]: 10 nM
,,,,,,,,OC1CCC(Nc2nc(-c3ccccc3)nc3[nH]ccc23)CC1 (centres undefined) [DERENOFYLLINE],Ki [20]: 1 nM; Ki [1]: 501 nM; Ki [18]: 2.51 nM; Ki [19]: 0.2 µM
> 1000 nM,< 30%,> 1000 nM,< 30%,> 1000 nM,> 1000 nM,< 30%,< 30%,CNc1nc(-c2ccccc2)c(C(=O)c2ccc(Cl)cc2)s1,
> 1000 nM,,> 1000 nM,< 30%,4.83 nM,2160 nM,,< 30%,Cc1ccc(C(=O)c2sc(NC(=O)c3ccccc3)nc2-c2ccccc2)cc1,IC50 [11]: 22.3 nM; Ki [12]: 57.4 nM; Ratio IC50 [13]: 0.99; Ki [14]: 6.25 µM; IC50 [15]: 22.1 nM

# Reference: ChEMBL document CHEMBL1157642, “2-Amino-5-benzoyl-4-phenylthiazoles: Development of potent and selective adenosine A1 receptor antagonists” (Bioorg Med Chem, 2010)
